Experimental data published in US12318452B2, “Degraders of WEE1 kinase” (DANA-FARBER CANCER INSTITUTE, INC., priority 2018, dated 2025).

Legend:
[1] = tested on: MOLT4 proteome; assay: Multiplexed quantitative mass spectrometry-based proteomics in MOLT4 cells; format: cell-based, human; conditions: 100 nM
Protocol: MOLT4 cells were treated with DMSO or 100 nM of compound 13 for 2 or 4 hours in biological triplicates and lenalidomide in biological duplicates for 4 hours and cells were harvested by centrifugation. Lysis buffer (8 M Urea, 50 mM NaCl, 50 mM 4-(2hydroxyethyl)-1-piperazineethanesulfonic acid (EPPS) pH 8.5, Protease and Phosphatase inhibitors from Roche) was added to the cell pellets and homogenized by 20 passes through a 21 gauge (1.25 in. long) needle to achieve a cell lysate with a protein concentration between 1-4 mg mL^−1. A micro-BCA assay (Pierce™) was used to determine the final protein concentration of protein in the cell lysate. 200 μg of protein for each sample were reduced and alkylated as previously described in Donovan et al., Elife 7:e38430 (2018).
Proteins were precipitated using methanol/chloroform. In brief, four volumes of methanol were added to the cell lysate, followed by one volume of chloroform, and finally three volumes of water. The mixture was vortexed and centrifuged to separate the chloroform phase from the aqueous phase. The precipitated protein was washed with three volumes of methanol, centrifuged and the resulting washed precipitated protein was allowed to air dry. Precipitated protein was resuspended in 4 M Urea, 50 mM HEPES pH 7.4, followed by dilution to 1 M urea with the addition of 200 mM EPPS, pH 8. Proteins were first digested with LysC (1:50; enzyme: protein) for 12 hours at room temperature. The LysC digestion was diluted down to 0.5 M Urea with 200 mM EPPS pH 8 and then digested with trypsin (1:50; enzyme:protein) for 6 hours at 37° C. Tandem mass tag (TMT) reagents (Thermo Fisher Scientific) were dissolved in anhydrous acetonitrile (ACN) according to manufacturer instructions. […] The sample channels were combined at a 1:1:1:1:1:1:1:1:1:1:1 ratio, desalted using C18 solid phase extraction cartridges (Waters®) and analyzed by LC-MS for channel ratio comparison. Samples were then combined using the adjusted volumes determined in the channel ratio analysis and dried down in a speed vacuum. […]

[2] = molecular target: Wee1 (Homo sapiens, UniProt P30291); assay: Wee1 degradation immunoblot in OVCAR8 cells; format: cell-based; design: endogenous in cells; conditions: 5 hours
Protocol: Whole cell lysates for immunoblotting were prepared by pelleting cells from each cell line at 4° C. (300 g) for 5 minutes. The resulting cell pellets were washed 1× with ice-cold PBS and then resuspended in RIPA lysis buffer (Sigma, cat #R0278) supplemented with protease and phosphatase inhibitor tablets (Roche cat #4906845001). Lysates were clarified at 14,000 rpm for 15 minutes at 4° C. prior to quantification by BCA assay (Pierce™, cat #23225). Whole cell lysates were loaded into Bolt 4-12% Bis-Tris Gels (Thermo Fisher, cat #NW04120BOX) and separated by electrophoreses at 95 V for 1.5 hours. The gels were transferred to a nitrocellulose membrane using the iBlot® Gel Transfer at P3 for 7 minutes (Thermo Fisher, cat #IB23001) and then blocked for 1 hour at room temperature in Odyssey® blocking buffer (LICOR® Biosciences, cat #927-50010). Membranes were probed using antibodies against the relevant proteins at 4° C. overnight in 20% Odyssey® Blocking Buffer in 1×TBST. […]
Compound 13 was profiled in three different ovarian cancer cell lines OVCAR8, COV362, and Kuramochi (FIG. 6C-FIG. 6E). […] After confirming that Compound 13 degraded Wee1 in OVCAR8 cells, with maximal degradation observed at a 100 nM treatment (FIG. 11A), the efficacy of compound 13 and Olaparib combination treatments were evaluated.

Wee1, sequence (P30291 whole entry): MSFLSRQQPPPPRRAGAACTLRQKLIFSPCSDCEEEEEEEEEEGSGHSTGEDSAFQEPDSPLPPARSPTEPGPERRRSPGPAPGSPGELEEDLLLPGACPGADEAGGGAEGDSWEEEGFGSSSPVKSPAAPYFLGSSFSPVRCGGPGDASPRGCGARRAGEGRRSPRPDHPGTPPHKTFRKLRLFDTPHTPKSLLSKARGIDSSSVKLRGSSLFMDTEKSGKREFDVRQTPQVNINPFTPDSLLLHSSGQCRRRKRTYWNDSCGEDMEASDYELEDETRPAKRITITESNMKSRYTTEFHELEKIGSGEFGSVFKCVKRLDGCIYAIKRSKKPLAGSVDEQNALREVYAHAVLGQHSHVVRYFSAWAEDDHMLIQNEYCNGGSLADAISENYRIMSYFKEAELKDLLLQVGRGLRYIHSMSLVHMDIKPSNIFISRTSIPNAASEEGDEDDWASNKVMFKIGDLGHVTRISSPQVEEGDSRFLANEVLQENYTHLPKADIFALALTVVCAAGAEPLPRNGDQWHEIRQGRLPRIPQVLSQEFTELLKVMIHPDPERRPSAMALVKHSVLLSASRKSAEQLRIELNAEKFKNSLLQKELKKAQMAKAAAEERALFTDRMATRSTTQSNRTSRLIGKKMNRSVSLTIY

## C=CCn1c(=O)c2cnc(Nc3ccc(N4CCN(CCCNc5cccc6c5C(=O)N(C5CCC(=O)NC5=O)C6=O)CC4)cc3)nc2n1-c1cccc(C(C)(C)O)n1 (stereo not shown) [Compound 13, 4-((3-(4-(4-((2-allyl-1-(6-(2-hydroxypropan-2-yl)pyridin-2-yl)-3-oxo-2,3-dihydro-1H-pyrazolo[3,4-d]pyrimidin-6-yl)amino)phenyl)piperazin-1-yl)propyl)amino)-2-(2,6-dioxopiperidin-3-yl)isoindoline-1,3-dione]
[1]
  ZFP91 degradation by proteomics: low levels of ZFP91 degradation
[1]; 2 hours
  PLK1 downregulation by proteomics: No downregulation of PLK1
  Wee1 abundance Log2FC: −1.97
[2]
  Concentration giving maximal Wee1 degradation: 100 nM
